Patent publication US7750014B2, “Imidazo[1,2-C]pyrimidinylacetic acid derivatives” (Actimis Pharmaceuticals, Inc., priority 2004, dated 2010)
pIC50, pKd: −log10 of the molar value. Read-outs that look alike come from different tables or passages of the source.

How the values were obtained:
human CRTH2 [1] = target: T1, human CRTH2 (Homo sapiens, UniProt Q9Y5Y4); test: Measurement of Ca2+ mobilization in the human CRTH2-transfected L1.2 cell line (Assay 1); type: cell-based; settings: PGD2-induced Ca2+ mobilization, CRTH2-transfected L1.2 cells, compounds at purity of about 40 to 90%
T1 construct: expressed in transfected cells
T1 sequence (Q9Y5Y4 1-395): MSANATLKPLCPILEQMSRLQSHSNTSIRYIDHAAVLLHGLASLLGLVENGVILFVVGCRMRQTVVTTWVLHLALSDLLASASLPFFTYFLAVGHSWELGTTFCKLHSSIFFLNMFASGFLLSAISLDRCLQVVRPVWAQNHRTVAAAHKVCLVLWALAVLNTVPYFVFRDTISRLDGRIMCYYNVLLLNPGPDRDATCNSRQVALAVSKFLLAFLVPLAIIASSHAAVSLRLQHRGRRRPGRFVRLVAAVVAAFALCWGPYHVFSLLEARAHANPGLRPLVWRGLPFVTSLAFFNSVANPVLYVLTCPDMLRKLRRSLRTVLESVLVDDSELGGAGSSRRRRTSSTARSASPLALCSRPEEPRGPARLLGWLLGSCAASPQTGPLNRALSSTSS
Procedure: (§1) Human CRTH2 cDNA was amplified from human eosinophil cDNA with gene specific primers containing restriction sites for cloning into pEAK vector (Edge Bio Systems). The human CRTH2 cDNA was cloned into the mammalian expression vector pEAK. This expression plasmid (40 μg) was transfected into L1.2 cells, at a cell density of 1×10^7 cells/500 μl, by using electroporation apparatus (Gene Pulser II, BioRad) at 250V/1,000 μF. One day after the transfection, puromycin (1 μg/ml, Sigma) was added into the cell culture plates. Two weeks after the transfection, grown cells were picked up for further growth.
Ca^2+ loading buffer was prepared by mixing 5 μl of Fluo-3AM (2 mM in DMSO, final 1 μM, Molecular Probes) and 10 μl of pluronic F-127 (Molecular Probes) and diluting the resulting mixture in 10 ml of Ca^2+ assay buffer (20 mM HEPES pH 7.6, 0.1% BSA, 1 mM probenecid, Hanks' solution). The CRTH2 transfected cells which were prepared in Example 1 were washed with PBS, resuspended in Ca^2+ loading buffer at 1×10^7 cells/ml, and incubated for 60 min at room temperature. After incubation, cells were washed and resuspended in Ca^2+ assay buffer, then dispensed into transparent-bottom 96-well plates (#3631, Costar) at 2×10^5 cells/well. Cells were incubated with various concentrations of test compound for 5 minutes at room temperature. The emitted 480 nm fluorescence was measured on FDSS6000, a Ca^2+-measurement apparatus (Hamamatsu Photonics, Hamamatsu, Japan).
Assay results in Assay 1 are shown in Examples and tables of the Examples below. The data corresponds to the compounds as yielded by solid phase synthesis and thus to levels of purity of about 40 to 90%. For practical reasons, the compounds are grouped in four classes of activity as follows: IC50=A(< or =)10 nM<B(< or =)100 nM<C(< or =)500 nM<D

human CRTH2 [2] = target: T1, human CRTH2; test: Human CRTH2 receptor binding assay (Assay 2); settings: binding to puromycin-resistant CRTH2 L1.2 transfectants
Procedure: as §1
CRTH2 transfectants were washed once with PBS and resuspended in binding buffer (50 mM Tris-HCl, pH7.4, 40 mM MgCl2, 0.1% BSA, 0.1% NaN3). 100 μl of cell suspension (2×10^5 cells), [^3H]-labeled PGD2, and various concentrations of test compound were then mixed in a 96-well U-bottom polypropylene plate and incubated for 60 min at room temperature to allow binding to occur. After incubation, the cell suspension was transferred to a filtration plate (#MAFB, Millipore) and washed 3 times with binding buffer. Scintillant was added to the filtration plate, and radioactivity remaining on the filter was measured by TopCount (Packard), a scintillation counter. Non-specific binding was determined by incubating the cell suspension and [^3H]-labeled PGD2 in the presence of 1 μM of unlabeled PGD2.

[3] = read-out: In vitro activity grade

SMILES | pIC50 (human CRTH2 [1]; [3]) | pIC50 (human CRTH2 [1]; read-out: Activity class) | also measured
O=C(O)Cc1c(Cl)nc(Cc2ccc(NC(=O)/C=C/c3ccccc3)cc2)n2ccnc12 [Example 1-4] | – | > 8.00 | –
O=C(O)Cc1c(Cl)nc(Cc2ccc(NC(=O)c3ccc4ccccc4c3)cc2)n2ccnc12 [Example 1-3, {7-chloro-5-[4-(2-naphthoylamino)benzyl]imidazo[1,2-c]pyrimidin-8-yl}acetic acid] | – | 7.00 to 8.00 | –
O=C(O)Cc1c(Cl)nc(Cc2ccc(NC(=O)c3ccc(Cl)c(Cl)c3)cc2)n2ccnc12 [Example 1-2, (7-chloro-5-{4-[(3,4-dichlorobenzoyl)amino]benzyl}imidazo[1,2-c]pyrimidin-8-yl)acetic acid] | – | > 8.00 | –
O=C(O)Cc1c(Cl)nc(Cc2ccc(NC(=O)c3ccc(C(F)(F)F)cc3)cc2)n2ccnc12 [Example 1-1, [7-Chloro-5-(4-{[4-(trifluoromethyl)benzoyl]amino}benzyl)imidazo[1,2-c]pyrimidin-8-yl]acetic acid] | 7.00 to 8.00 | – | –
CCCCC[C@H](O)/C=C/[C@H]1C(=O)C[C@H](O)[C@@H]1C/C=C\CCCC(=O)O [[^3H]-labeled PGD2] | – | – | pKd (human CRTH2 [2]): 8.20
O=C(O)Cc1c(Cl)nc(Cc2ccc(NC(=O)/C=C/c3ccc(Cl)cc3)cc2)n2ccnc12 [Example 1-5, [7-chloro-5-(4-{[(2E)-3-(4-chlorophenyl)prop-2-enoyl]amino}benzyl)imidazo[1,2-c]pyrimidin-8-yl]acetic acid] | – | 7.00 to 8.00 | –

More lines, main results first:

pIC50 (human CRTH2 [1]; [3]) | pIC50 (human CRTH2 [1]; read-out: Activity class) | SMILES | also measured
7.00 to 8.00 | – | O=C(O)Cc1cnc(Cc2ccc(NC(=O)c3ccc(C(F)(F)F)cc3)cc2)n2ccnc12 [Example 2-1, [5-(4-{[4-(trifluoromethyl)benzoyl]amino}benzyl)imidazo[1,2-c]pyrimidin-8-yl]acetic acid] | –
6.30 to 7.00 | – | O=C(O)Cc1cnc(Cc2ccc(NC(=O)c3ccc(Cl)c(Cl)c3)cc2)n2ccnc12 [Example 2-2, (5-{4-[(3,4-Dichlorobenzoyl)amino]benzyl}imidazo[1,2-c]pyrimidin-8-yl)acetic acid] | –
